In ChEMBL document CHEMBL2073953, “The anthelminthic agent albendazole does not interact with p-glycoprotein” (Drug Metab Dispos, 2002):

Key:
[1] = biological target: T1, ATP-dependent translocase ABCB1 (Homo sapiens, UniProt P08183); test: TP_TRANSPORTER: inhibition of Digoxin transepithelial transport (basal to apical) (Digoxin: 5 uM, Albendazole: 100 uM) in MDR1-expressing LLC-PK1 cells; format: functional, cell-based; settings: pig, llc-pk1, 100 µM
[2] = biological target: P-glycoprotein 1 and 3 (MDR1a/MDR1b) (Mus musculus, UniProt P21447+P06795); test: TP_TRANSPORTER: tissue distribution in mdr1a/1b(-/-) mouse; format: functional, organism-based; settings: in vivo
[3] = biological target: T1, ATP-dependent translocase ABCB1; test: TP_TRANSPORTER: transepithelial transport (basal to apical) in MDR1-expressing LLC-PK1 cells; format: functional, cell-based; settings: pig

T1 sequence (P08183 whole entry): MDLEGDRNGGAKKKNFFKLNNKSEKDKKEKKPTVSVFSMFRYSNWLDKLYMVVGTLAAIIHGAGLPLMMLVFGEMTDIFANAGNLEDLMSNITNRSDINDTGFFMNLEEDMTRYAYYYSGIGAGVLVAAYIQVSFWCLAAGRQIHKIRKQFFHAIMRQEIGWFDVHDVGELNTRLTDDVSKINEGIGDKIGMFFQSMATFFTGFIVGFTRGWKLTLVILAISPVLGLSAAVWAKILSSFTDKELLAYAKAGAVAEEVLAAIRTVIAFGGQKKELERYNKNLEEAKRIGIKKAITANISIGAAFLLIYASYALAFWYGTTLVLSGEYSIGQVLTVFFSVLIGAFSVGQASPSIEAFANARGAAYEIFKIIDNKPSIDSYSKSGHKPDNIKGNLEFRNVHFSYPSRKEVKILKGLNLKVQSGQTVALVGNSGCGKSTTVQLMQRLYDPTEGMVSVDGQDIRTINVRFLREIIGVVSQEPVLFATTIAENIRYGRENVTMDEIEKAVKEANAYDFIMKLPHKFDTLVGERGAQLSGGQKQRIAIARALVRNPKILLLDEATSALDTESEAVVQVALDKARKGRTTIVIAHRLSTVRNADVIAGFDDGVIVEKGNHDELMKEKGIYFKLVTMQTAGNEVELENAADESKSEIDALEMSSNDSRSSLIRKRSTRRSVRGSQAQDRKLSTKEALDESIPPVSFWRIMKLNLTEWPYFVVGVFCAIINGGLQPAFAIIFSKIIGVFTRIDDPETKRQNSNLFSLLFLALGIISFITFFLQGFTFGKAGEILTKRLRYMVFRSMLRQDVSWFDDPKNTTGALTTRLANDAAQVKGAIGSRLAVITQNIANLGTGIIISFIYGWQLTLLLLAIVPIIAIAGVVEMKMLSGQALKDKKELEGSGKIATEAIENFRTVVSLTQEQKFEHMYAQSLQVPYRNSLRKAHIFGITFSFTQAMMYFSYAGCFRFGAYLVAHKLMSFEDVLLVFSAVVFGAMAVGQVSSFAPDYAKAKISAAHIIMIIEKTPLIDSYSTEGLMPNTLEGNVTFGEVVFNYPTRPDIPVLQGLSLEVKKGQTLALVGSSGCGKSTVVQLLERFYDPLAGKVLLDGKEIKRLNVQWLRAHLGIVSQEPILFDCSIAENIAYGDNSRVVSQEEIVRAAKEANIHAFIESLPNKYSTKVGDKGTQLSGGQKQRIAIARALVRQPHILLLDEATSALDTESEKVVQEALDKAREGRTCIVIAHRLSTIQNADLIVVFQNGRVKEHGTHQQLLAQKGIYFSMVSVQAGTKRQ

SMILES: CCCSc1ccc2nc(NC(=O)OC)[nH]c2c1 [ALBENDAZOLE]
- Activity [1]: is not an inhibitor [-]
- Activity [2]: is not a substrate [-]
- Activity [3]: is not a substrate [-]
